The source of these data is patent publication US6933289B2, “Inhibition of irritating side effects associated with use of a topical ophthalmic medication” (Allergan, Inc., priority 2003, dated 2005).

The nature of series [1]: Phase-solubility analysis: association constant between bimatoprost and cyclodextrin or cyclodextrin derivative. It counts as physicochemical. Conditions: 1:1 complex with bimatoprost, stirred one week at room temperature. Here is the method:
CD represents the associated complex of the two. […] CD], according to equation 2. [formula]
The association constant between the bimatoprost and four cyclodextrin or cyclodextrin derivatives was determined by running phase-solubility analysis. A series of small glass bottles was set up, each fitted with a screw cap and a magnetic stir bar with increasing concentrations of cyclodextrin or cyclodextrin derivative dissolved in a fixed volume (e.g., 10 mL) of aqueous vehicle (e.g., the formulation minus the drug and the cyclodextrin or cyclodextrin derivative). […] Bottles were then capped and the suspensions were stirred for a week at room temperature to ensure equilibrium. Undissolved drug was removed by centrifugation, followed by filtration through a 0.45 μm filter membrane to obtain a clear solution, free of drug in suspension. The concentration of the solubilized drug in each filtrate sample was determined and drug solubility (y-axis) was plotted against the concentration of the cyclodextrin or cyclodextrin derivative (x-axis). […] In principle, S0 is equivalent to the y intercept (b) of the fitted line, however, in most cases it can more accurately be determined by direct measurement of the solubility rather than indirectly from the fit of data.

For series [2] the following is noted: 0.02% bimatoprost, cited from earlier work.

As for 2-Hydroxypropyl β-cyclodextrin, the “Association Constant (molar association constant for bimatoprost)” value (“Association Constant” below) in series [1] is on record as “≈1913 M^−1”.
With `CCNC(=O)CCC/C=C\C[C@@H]1[C@@H](/C=C/[C@@H](O)CCc2ccccc2)[C@H](O)C[C@@H]1O` [bimatoprost], the Hyperemia result in series [2] (no cyclodextrin) is recorded as “little hyperemia”. In addition, in series [2], the Efficacy result is listed as “loses efficacy”.
Turning to `OC[C@H]1O[C@@H]2O[C@H]3[C@H](O)[C@@H](O)[C@@H](O[C@H]4[C@H](O)[C@@H](O)[C@@H](O[C@H]5[C@H](O)[C@@H](O)[C@@H](O[C@H]6[C@H](O)[C@@H](O)[C@@H](O[C@H]7[C@H](O)[C@@H](O)[C@@H](O[C@H]8[C@H](O)[C@@H](O)[C@@H](O[C@H]9[C@H](O)[C@@H](O)[C@@H](O[C@H]1[C@H](O)[C@H]2O)O[C@@H]9CO)O[C@@H]8CO)O[C@@H]7CO)O[C@@H]6CO)O[C@@H]5CO)O[C@@H]4CO)O[C@@H]3CO` [γ-cyclodextrin], the “Association Constant” value in series [1] is recorded as “≈439 M^−1”.
As to Sulfobutyl ether β-cyclodextrin, the “Association Constant” value in series [1] is recorded as “≈1464 M^−1”.
